From ChEMBL document CHEMBL1201862, “PubChem BioAssay data set” (2004)
Calls of active or inactive are those of the source.

Columns and labels:
[1] = inhibitors of firefly luciferase expression or activity, dose response, H4 neuroglioma cells, luminescence (AID 1990); format: functional, cell-based
[2] = Luminescence Cell-Based Dose Response HTS to Identify Inhibitors of 5'UTR Stem-Loop Driven Prion Protein mRNA Translation in H4 Neuroglioblastoma Cells. [Related pubchem assays: 1827 (Project Summary), 1813 (Primary HTS)]; format: functional
[3] = inhibitors of SNCA 5'UTR-driven reporter translation, confirmation, H4 neuroglioma cells, luminescence (AID 1988); format: functional, cell-based
Cytochrome P450 2C9 [4] = target: T1, Cytochrome P450 2C9 (Homo sapiens, UniProt P11712)
T1 sequence (P11712 whole entry): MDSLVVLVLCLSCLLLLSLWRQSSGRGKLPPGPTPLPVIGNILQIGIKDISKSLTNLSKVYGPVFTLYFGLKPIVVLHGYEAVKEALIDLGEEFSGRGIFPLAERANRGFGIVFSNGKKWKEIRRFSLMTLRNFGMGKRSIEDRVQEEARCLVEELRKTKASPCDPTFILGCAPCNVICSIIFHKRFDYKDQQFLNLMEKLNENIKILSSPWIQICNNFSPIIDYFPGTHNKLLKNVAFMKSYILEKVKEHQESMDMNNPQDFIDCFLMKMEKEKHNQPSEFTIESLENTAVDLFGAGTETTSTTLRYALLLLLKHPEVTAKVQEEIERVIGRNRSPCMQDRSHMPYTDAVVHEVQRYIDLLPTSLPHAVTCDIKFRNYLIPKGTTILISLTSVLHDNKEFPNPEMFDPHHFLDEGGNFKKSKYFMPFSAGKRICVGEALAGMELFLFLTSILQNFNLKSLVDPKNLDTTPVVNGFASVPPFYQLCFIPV

cells [5] = format: functional, cell-based
cells [6] = format: functional, cell-based; remark: listed apart in the source
[7] = Luminescence Cell-Based Dose Retest to Confirm Inhibitors of Cancer Stem Cells. [Related pubchem assays (depositor defined):AID2717, AID2721]; format: functional; conditions: Homo sapiens
Vero = assay: cells; format: functional; conditions: Chlorocebus sabaeus
Cytochrome P450 2C19 = Cytochrome P450 2C19 (Homo sapiens, UniProt P33261); assay: Cytochrome panel assay with activity outcomes. Panel member name: p450-cyp2c19 Compounds with AC50 equal or less than 10 uM are considered active; format: functional; conditions: read-out: AC50
Sequence of Cytochrome P450 2C19 (P33261 whole entry): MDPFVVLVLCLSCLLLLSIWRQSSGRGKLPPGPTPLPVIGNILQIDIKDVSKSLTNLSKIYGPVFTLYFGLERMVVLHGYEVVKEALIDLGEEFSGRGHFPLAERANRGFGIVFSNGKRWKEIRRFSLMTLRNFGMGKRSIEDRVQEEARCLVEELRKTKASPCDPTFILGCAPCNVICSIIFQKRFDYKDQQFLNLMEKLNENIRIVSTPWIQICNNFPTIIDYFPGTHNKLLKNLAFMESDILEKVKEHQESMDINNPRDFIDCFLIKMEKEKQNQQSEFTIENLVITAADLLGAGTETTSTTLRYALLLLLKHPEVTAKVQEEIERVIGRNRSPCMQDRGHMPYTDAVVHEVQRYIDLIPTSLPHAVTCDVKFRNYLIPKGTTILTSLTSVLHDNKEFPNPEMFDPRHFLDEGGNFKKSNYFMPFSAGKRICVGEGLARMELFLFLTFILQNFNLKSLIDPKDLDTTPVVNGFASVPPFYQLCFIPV

[8] = growth suppression of PTEN-null colon cells, dose response, cell-based, HCT116 PTEN knockout (AID 1047); format: functional;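 further: HCT116 colon tumor cells with PTEN knocked out; cells exposed to compound for 60 hours before readout; potency for loss of cell viability measured by luminescence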
[9] = growth suppression of beta-catenin-knockout colon cells, dose response, cell-based, HCT116, human colon tumor (AID 1045); format: functional;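 further: HCT116 colon tumor cells with beta catenin knocked out; cells exposed to compound for 60 hours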
[10] = THP-1 cell cytotoxicity, dose response, cytotoxicity control for non-replicating M. tuberculosis project (AID 489025); format: functional
[11] = HepG2 cell cytotoxicity, dose response, cytotoxicity control for non-replicating M. tuberculosis project (AID 489018); format: functional; conditions: Mycobacterium tuberculosis
[12] = Vero E6 cell cytotoxicity, dose response, cytotoxicity control for non-replicating M. tuberculosis project, secondary assay (AID 492998); format: functional, VeroE6; conditions: Vero C1008
cells [13] = format: functional
[14] = target: T2, Endoribonuclease toxin MazF (Escherichia coli K-12, UniProt P0AE70); assay: MazF toxin RNase activators, dose response, biochemical, fluorescence, single-stranded RNA substrate, uHTS hits (AID 588481); format: functional
T2 sequence (P0AE70 whole entry): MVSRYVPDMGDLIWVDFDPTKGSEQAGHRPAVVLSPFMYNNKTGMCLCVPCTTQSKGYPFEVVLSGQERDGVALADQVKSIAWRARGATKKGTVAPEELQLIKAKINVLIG

[15] = target: T2, Endoribonuclease toxin MazF; assay: fluorescent RNA oligo signal without MazF, dose response, counter-screen for MazEF activator project, biochemical, fluorescence, single-stranded RNase substrate (AID 588502); format: functional
Large T antigen = Large T antigen (Simian virus 40, UniProt P03070); format: functional, Betapolyomavirus macacae;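 further: Confirmatory-stage PubChem screen for compounds that inhibit SV40 T antigen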
Sequence of Large T antigen (P03070 whole entry): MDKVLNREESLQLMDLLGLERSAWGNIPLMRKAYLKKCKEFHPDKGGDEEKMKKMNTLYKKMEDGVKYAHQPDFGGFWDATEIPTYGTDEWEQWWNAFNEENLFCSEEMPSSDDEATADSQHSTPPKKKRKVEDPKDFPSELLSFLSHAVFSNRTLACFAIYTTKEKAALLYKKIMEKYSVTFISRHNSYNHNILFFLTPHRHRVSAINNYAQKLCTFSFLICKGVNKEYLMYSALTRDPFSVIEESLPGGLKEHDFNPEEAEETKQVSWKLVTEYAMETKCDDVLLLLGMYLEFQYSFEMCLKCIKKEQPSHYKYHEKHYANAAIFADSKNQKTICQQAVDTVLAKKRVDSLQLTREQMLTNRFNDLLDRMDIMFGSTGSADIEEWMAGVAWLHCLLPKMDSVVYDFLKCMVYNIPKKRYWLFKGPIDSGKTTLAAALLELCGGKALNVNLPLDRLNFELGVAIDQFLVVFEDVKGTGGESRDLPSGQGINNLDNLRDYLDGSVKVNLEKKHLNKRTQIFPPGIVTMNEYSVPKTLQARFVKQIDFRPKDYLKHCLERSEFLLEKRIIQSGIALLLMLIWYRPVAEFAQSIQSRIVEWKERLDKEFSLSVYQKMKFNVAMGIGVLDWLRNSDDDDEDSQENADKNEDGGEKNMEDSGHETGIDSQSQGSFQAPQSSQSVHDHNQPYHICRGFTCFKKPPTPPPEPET

[16] = target: FAD-linked sulfhydryl oxidase ALR (Homo sapiens, UniProt P55789); assay: inhibitors of human ALR sulfhydryl oxidase, dose response, biochemical, H2O2 detection, luminescence, cherry-pick (AID 493248)
Sequence of FAD-linked sulfhydryl oxidase ALR (P55789 whole entry): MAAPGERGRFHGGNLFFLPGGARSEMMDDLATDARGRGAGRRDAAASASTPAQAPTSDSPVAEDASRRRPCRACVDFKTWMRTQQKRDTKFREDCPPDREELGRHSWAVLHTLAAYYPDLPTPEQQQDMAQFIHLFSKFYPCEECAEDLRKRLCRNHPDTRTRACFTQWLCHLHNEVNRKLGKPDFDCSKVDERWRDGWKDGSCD

[17] = system: Streptococcus sp. 'group A'; assay: growth inhibition of control SK(-) GAS strain, dose response, counter-screen for streptokinase expression inhibitor project, luminescence, kanamycin, BacTiterGlo, confirmation (AID 1900); format: functional, organism-based
Streptokinase A = target: T3, Streptokinase A (Streptococcus pyogenes serotype M1, UniProt P10520); assay: S. pyogenes streptokinase expression inhibitors, potency, dose response, plasminogen activation absorbance, OD405 (AID 1914); format: functional, Streptococcus pyogenes M1 GAS;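 further: secreted streptokinase activity via plasminogen activation per viability signal from cell pellet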
T3 sequence (P10520 whole entry): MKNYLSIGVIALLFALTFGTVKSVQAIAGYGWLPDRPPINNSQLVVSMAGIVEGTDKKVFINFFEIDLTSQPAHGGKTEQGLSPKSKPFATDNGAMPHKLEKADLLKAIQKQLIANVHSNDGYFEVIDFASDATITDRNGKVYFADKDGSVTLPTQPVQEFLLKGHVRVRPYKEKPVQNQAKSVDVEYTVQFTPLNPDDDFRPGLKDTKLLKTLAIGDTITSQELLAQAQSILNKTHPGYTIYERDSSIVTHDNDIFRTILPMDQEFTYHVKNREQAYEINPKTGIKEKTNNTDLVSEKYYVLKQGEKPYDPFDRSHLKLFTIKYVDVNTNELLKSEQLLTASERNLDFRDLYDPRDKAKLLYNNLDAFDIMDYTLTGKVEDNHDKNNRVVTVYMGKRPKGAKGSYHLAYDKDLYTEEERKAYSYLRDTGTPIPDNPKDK

Streptococcus = assay: Group A Streptococcus viability loss, dose response, counter-screen for streptokinase expression inhibitor project, luminescence, BacTiterGlo (AID 1915); format: functional, organism-based;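 further: potency for reduction of bacterial viability or growth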
[18] = target: T4, Heat shock factor protein 1 (Mus musculus, UniProt P38532); assay: HSF1 potentiators in luciferase reporter cells, confirmation, cell-based, NIH3T3, luminescence, dose retest (AID 435004); format: functional;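 further: stress induced by proteasome inhibitor MG132 added 30 min after compound; luciferase reporter driven by HSF1 response element in NIH3T3 cells; actives raise luminescence as potentiators of the MG132 stress response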
T4 sequence (P38532 whole entry): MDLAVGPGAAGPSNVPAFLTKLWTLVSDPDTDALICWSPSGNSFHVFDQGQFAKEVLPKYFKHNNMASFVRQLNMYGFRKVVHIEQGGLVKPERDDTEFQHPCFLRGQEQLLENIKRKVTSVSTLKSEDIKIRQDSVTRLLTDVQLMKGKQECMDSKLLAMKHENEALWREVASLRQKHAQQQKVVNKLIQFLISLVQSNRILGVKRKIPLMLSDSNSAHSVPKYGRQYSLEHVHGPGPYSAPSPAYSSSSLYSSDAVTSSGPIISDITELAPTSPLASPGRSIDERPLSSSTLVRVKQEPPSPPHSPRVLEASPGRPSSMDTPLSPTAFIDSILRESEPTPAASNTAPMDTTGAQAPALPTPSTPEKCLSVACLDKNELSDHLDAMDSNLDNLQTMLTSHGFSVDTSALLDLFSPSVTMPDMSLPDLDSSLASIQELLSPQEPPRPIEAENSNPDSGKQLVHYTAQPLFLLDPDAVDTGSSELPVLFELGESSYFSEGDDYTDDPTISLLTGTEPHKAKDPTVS

INS1 = assay: beta cell apoptosis inhibitors, cytokine rescue, dose response, luminescence, retest (AID 449756); format: functional, cell-based; conditions: Rattus norvegicus;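 further: cell death triggered by IL-1 beta plus TNF-alpha plus IFN-gamma mixture; protective hits raise ATP signal compared with cytokine alone wells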
[19] = Shn3 3'UTR reporter inhibitors, dose response, cell-based, Clone20 osteoblasts, firefly luciferase, cherry-picked (AID 624132); format: functional;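 further: firefly luciferase luminescence from reporter carrying the Shn3 3'UTR in osteoblasts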
[20] = control 3'UTR Renilla luciferase suppression, dose response, counter-screen for Shn3 inhibitor project, cell-based, Clone20-Shn3RL, cherry-picked (AID 624133); format: functional
Cytochrome P450 3A4 = Cytochrome P450 3A4 (Homo sapiens, UniProt P08684);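 further: CYP3A4 tested as one member of a cytochrome P450 panel screen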
Sequence of Cytochrome P450 3A4 (P08684 whole entry): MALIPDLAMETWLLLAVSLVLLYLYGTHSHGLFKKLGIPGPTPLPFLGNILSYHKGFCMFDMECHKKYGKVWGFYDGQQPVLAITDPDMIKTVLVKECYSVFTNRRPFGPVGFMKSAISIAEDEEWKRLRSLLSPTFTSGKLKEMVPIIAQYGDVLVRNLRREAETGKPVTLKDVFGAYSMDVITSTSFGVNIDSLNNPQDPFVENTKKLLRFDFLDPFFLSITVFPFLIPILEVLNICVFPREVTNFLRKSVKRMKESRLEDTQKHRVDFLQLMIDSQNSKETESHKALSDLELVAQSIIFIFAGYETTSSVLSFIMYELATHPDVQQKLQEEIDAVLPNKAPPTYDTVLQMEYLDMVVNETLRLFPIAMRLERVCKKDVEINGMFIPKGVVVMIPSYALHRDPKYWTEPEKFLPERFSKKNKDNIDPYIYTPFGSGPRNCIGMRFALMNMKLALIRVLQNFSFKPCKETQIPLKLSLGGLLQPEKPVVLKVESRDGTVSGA

Cytochrome P450 2D6 = Cytochrome P450 2D6 (Homo sapiens, UniProt P10635);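 further: CYP2D6 member of a cytochrome P450 panel assay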
Sequence of Cytochrome P450 2D6 (P10635 whole entry): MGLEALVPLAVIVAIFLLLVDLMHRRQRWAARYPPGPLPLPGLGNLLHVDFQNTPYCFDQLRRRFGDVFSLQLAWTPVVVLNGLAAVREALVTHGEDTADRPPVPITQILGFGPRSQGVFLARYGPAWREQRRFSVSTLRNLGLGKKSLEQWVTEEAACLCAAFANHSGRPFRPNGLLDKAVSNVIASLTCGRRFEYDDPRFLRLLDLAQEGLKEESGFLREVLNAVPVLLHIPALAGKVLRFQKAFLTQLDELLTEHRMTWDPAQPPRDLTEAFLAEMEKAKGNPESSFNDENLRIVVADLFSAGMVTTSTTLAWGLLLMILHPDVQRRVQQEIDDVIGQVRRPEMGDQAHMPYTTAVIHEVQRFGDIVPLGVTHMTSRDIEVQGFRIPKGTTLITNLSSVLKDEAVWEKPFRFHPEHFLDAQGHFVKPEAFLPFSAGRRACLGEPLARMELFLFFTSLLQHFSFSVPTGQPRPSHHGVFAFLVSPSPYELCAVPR

Cytochrome P450 2C9 [21] = target: T1, Cytochrome P450 2C9; remark: listed apart in the source
[22] = NIH-3T3 fibroblast cytotoxicity, dose response, cytotoxicity control, cell-based, fluorescence, Alamar Blue, secondary assay (AID 2327); format: functional;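 further: NIH-3T3 mouse fibroblasts cultured with fluconazole at 8 µg/mL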
[23] = C. albicans growth with fluconazole, confirmation, fluorescence, retest (AID 2467); format: functional, cell-based
H9c2 = assay: cells; format: functional, cell-based; conditions: Rattus norvegicus, H9c2, Myocardium
Protein skinhead-1 = target: T5, Protein skinhead-1 (Caenorhabditis elegans, UniProt P34707); format: functional
T5 sequence (P34707 whole entry): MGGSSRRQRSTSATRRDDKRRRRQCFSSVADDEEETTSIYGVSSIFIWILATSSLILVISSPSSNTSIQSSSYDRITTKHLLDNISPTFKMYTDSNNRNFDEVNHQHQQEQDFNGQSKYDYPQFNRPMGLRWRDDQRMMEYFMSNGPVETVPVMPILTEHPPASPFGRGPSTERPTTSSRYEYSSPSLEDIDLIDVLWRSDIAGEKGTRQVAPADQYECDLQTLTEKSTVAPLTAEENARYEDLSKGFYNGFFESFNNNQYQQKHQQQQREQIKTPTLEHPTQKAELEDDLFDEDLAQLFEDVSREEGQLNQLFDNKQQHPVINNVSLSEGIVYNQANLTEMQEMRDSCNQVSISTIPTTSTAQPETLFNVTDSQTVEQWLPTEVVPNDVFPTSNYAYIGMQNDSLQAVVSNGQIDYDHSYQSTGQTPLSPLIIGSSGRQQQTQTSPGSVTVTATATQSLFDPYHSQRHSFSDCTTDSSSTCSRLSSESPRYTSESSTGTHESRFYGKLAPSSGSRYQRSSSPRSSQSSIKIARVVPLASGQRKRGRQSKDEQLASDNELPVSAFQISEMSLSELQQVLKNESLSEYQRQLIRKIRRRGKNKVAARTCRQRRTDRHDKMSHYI

## C=CCn1c(C)cc(C(=O)CN2C(=O)c3ccccc3C2=O)c1C
[1]
  EC50: 10.1 µM (inconclusive)
[2]
  EC50: 18.7 µM (active)
[3]
  EC50: 8.53 µM (active)
Cytochrome P450 2C9 [4]
  AC50: inconclusive

## O=C(Cc1ccc(S(=O)(=O)N2CCOCC2)s1)Nc1ccc(S(=O)(=O)N2CCCCC2)cc1
Cells [5]
  EC50: > 350 µM (not active)
Cells [6]
  EC50: > 350 µM (not active)

## COc1cc(N/N=C(\C)c2ccc(O)c(C)c2)nc(-c2ccccc2)n1
[7]
  AC50: 3.99 µM (active)
Vero
  CC50: > 25 µM (active)

## CCOc1ccc(C(=O)Cc2cc(OC)c(OC)cc2[N+](=O)[O-])cc1
Cytochrome P450 2C19
  AC50: 1.41 µM (inconclusive)
Cytochrome P450 2C9 [4]
  AC50: inconclusive

## CCOc1cc(CNCCO)cc(Br)c1OCc1ccc(Cl)cc1
[8]
  EC50: 7.29 µM (active)
[9]
  EC50: 7.16 µM (active)
[10]
  CC50: 9.41 µM (active)
[11]
  CC50: 11 µM (active)
[12]
  CC50: 12.7 µM (active)
Cells [13]
  IC50: 26.9 µM (active)

## COc1ccc(CN2C(=O)NC(=O)/C(=C/c3ccc[nH]3)C2=O)cc1
[14]
  EC50: > 99 µM (inactive)
[15]
  EC50: > 99 µM (inactive)

## CCN(CC)c1ccc(NC(=O)c2cccnc2)c(C)c1
Large T antigen
  IC50: 77.3 µM (active)
[16]
  AC50: 0.877 µM (active)
Cytochrome P450 2C19
  AC50: 39.8 µM (inconclusive)
Cytochrome P450 2C9 [4]
  AC50: inconclusive

## CCCCCCCCCCCC(=O)c1c(O)cccc1O
[17]
  EC50: 1.53 µM (active)
Streptokinase A
  EC50: > 150 µM (not active)
Streptococcus
  EC50: 7.15 µM (active)
[18]
  EC50: 60.1 µM (active)

## O=[N+]([O-])c1ccc(NN=Cc2ccc3c(c2)OCO3)nc1
[14]
  EC50: 40.5 µM (inactive)
[15]
  EC50: > 99 µM (inactive)

## COC(=O)c1ccc2c(=O)n(Cc3ccc(C(=O)NCCCN4CCC(C)CC4)cc3)c(=S)[nH]c2c1
Vero
  CC50: 20.9 µM (active)

## CCS(=O)(=O)c1ncc(Cl)c(C(=O)Nc2ccccc2OC)n1
[18]
  EC50: 8.04 µM (active)
INS1
  AC50: 38.9 µM (active)
[19]
  AC50: 3.71 µM (active)
[20]
  AC50: 4.81 µM (active)

## CC(C)c1ccc2[nH]c3c(c2c1)CCC/C3=N\NC(=O)c1ccncc1
[17]
  EC50: 3.54 µM (active)
Streptokinase A
  EC50: > 150 µM (not active)
Streptococcus
  EC50: 16.9 µM (active)
[10]
  CC50: 26 µM (active)
[11]
  CC50: > 20 µM (active)
[12]
  CC50: 11.6 µM (active)
Cells [13]
  IC50: 2 µM (active)

## COc1ccc(/C=C/c2cc(=O)c3cc(Cl)ccc3o2)cc1
[14]
  EC50: > 99 µM (inactive)
[15]
  EC50: 38 µM (inactive)

## CC(=O)Nc1ccc2nc(NC(=O)COc3ccccc3C)sc2c1
Cells [5]
  EC50: > 350 µM (not active)
Cells [6]
  EC50: > 350 µM (not active)

## CCc1c(O)oc2nnc(C)c-2c1C
Cytochrome P450 2C19
  AC50: 11.2 µM (inconclusive)
Cytochrome P450 2C9 [4]
  AC50: inconclusive

## Cl.Fc1ccc(CCNCc2cccc(Cl)c2)cc1
Cytochrome P450 2C19
  AC50: 1 µM (inconclusive)
Cytochrome P450 3A4
  AC50: 12.6 µM (inconclusive)
Cytochrome P450 2C9 [4]
  AC50: inconclusive

## COC(=O)[C@H](CCSC)NC(=O)c1cccnc1SC
Cells [5]
  EC50: > 350 µM (not active)
Cells [6]
  EC50: > 350 µM (not active)

## CCCCn1nc2cc(C(=O)NCC3CC3)ccc2c1OCC
Cytochrome P450 2C19
  AC50: 14.1 µM (inconclusive)
Cytochrome P450 2C9 [4]
  AC50: inconclusive

## CC(=O)/N=c1\sccn1CC(=O)c1ccc([N+](=O)[O-])cc1
[18]
  EC50: > 260 µM (inactive)
Cytochrome P450 2D6
  AC50: 14.1 µM (inconclusive)
Cytochrome P450 2C9 [21]
  AC50: 0.0794 µM (inconclusive)

## COc1ccc(C(=O)NC(=S)NNC(=O)c2ccccc2C)cc1
[22]
  EC50: > 150 µM (inconclusive)
[17]
  EC50: 1.31 µM (active)
[23]
  EC50: 1.69 µM (active)
Streptococcus
  EC50: 2.83 µM (active)
Vero
  CC50: > 25 µM (active)

## CCn1c(/C=N/NC(=O)c2ccc(OC)cc2)nc2ccccc21
[10]
  CC50: 24.1 µM (active)
[11]
  CC50: > 20 µM (active)
[12]
  CC50: 17.9 µM (active)
Cells [13]
  IC50: 15.7 µM (active)
H9c2
  IC50: > 79 µM (inactive)

## C=CCSc1cc(C)nc2c(-c3ccccc3)cnn12
Cells [5]
  EC50: > 350 µM (not active)
Cells [6]
  EC50: 26.8 µM (active)

## CCOC(=O)COn1c(-c2cccc(Cl)c2)nc2ccc([N+](=O)[O-])cc21
[12]
  CC50: > 20 µM (active)
Cells [13]
  IC50: 28.9 µM (active)
Protein skinhead-1
  IC50: > 100 µM (inactive)
